“Also recorded” adds a separate entry of the source. Read-outs that look alike come from different tables or passages of the source. No end group written: not given here.
T1: ZO1 PDZ2 (Homo sapiens, UniProt Q07157)
T1 construct: ZO-1-2 (PDZ2; residues 184–264); His tag (N); made in house; host or cells: E. coli BL21 Star (DE3)
T1 sequence (Q07157 184-264): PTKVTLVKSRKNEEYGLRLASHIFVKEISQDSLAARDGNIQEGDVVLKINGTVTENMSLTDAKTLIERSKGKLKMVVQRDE

T2: MPP5 PDZ (Homo sapiens, UniProt Q8N3R9)
T2 construct: MPP5 (residues 238–336); GST (N, cleaved yes); made in house; host or cells: E. coli BL21 Star (DE3)
T2 sequence (Q8N3R9 238-336): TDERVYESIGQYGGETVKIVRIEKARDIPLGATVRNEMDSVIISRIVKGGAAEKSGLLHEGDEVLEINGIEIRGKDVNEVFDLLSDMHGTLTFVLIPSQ

T3: LNX2 PDZ2 (Homo sapiens, UniProt Q8N448)
T3 construct: LNX2-2 (PDZ2; residues 334–426); His tag (N, cleaved yes); made in house; host or cells: E. coli BL21 Star (DE3)
T3 sequence (Q8N448 334-426): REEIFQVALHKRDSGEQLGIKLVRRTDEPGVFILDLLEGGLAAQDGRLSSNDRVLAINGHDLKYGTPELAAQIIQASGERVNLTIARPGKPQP

T4: MLLT4 PDZ (Homo sapiens, UniProt P55196)
T4 construct: MLLT4; P55196; 1002-1095; His-MBP (N, cleaved yes); made in house; host or cells: E. coli BL21 Star (DE3)
T4 sequence (P55196 1002-1095): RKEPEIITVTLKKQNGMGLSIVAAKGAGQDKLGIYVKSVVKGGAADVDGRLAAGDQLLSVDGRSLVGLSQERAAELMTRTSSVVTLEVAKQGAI

T5: MLLT4 PDZ (human, UniProt P55196 1002-1095)
T5 construct: PDZ domain of human MLLT4 (Afadin); the residues named in the structure (1014-1022, 1071) fit 1002-1095; also called Afadin PDZ; not shown: His tag, N-terminal, cleaved; MBP, N-terminal, cleaved
T5 sequence (looked up): T4 sequence (P55196 1002-1095)

T6: ZO-1 PDZ2 (human, UniProt Q07157 184-264)
T6 construct: second PDZ domain of human ZO-1 (TJP1), residues 184-264, numbering of the full-length human protein; […]; Labelled on amines with RED-NHS dye for MST; also called TJP1 PDZ2; ZO-1-2
T6 sequence (looked up): T1 sequence (Q07157 184-264)

T7: MPP5 PDZ (human, UniProt Q8N3R9 238-336)
T7 construct: PDZ domain of human MPP5 (PALS1), residues 238-336, numbering of the full-length human protein; […]; Labelled on amines with RED-NHS dye for MST; also called PALS1 PDZ; not shown: GST, N-terminal, cleaved
T7 sequence (looked up): T2 sequence (Q8N3R9 238-336)

T8: LNX2 PDZ2 (human, UniProt Q8N448 334-426)
T8 construct: second PDZ domain of human LNX2, residues 334-426, numbering of the full-length human protein; […]; Labelled on amines with RED-NHS dye for MST; also called LNX2-2; not shown: His tag, N-terminal, cleaved
T8 sequence (looked up): T3 sequence (Q8N448 334-426)

B1: C-terminal SARS-CoV-2-E PBM P71L peptide of the beta variant (peptide)
peptide: NLNSSRVLDLLV
notes: also called P71L PBM peptide; SARS-CoV-2 P71L

Columns and labels:
ZO1 PDZ2 = molecular target: T1, ZO1 PDZ2; test: Microscale thermophoresis, E PBM peptide vs ZO1 PDZ2; type: binding
MPP5 PDZ [1] = molecular target: T2, MPP5 PDZ; test: Microscale thermophoresis, E PBM peptide vs MPP5 PDZ; type: binding
LNX2 PDZ2 [2] = molecular target: T3, LNX2 PDZ2; test: Microscale thermophoresis, E PBM peptide vs LNX2 PDZ2; type: binding
PARD3 PDZ3 [3] = molecular target: T9, PARD3 PDZ3 (Homo sapiens, UniProt Q8TEW0); test: Microscale thermophoresis, E PBM peptide vs PARD3 PDZ3; type: binding; conditions: MST
T9 construct: PARDD3-3 (PDZ3; residues 582–685); His tag (N, cleaved yes); made in house; host or cells: E. coli BL21 Star (DE3)
T9 sequence (Q8TEW0 582-685): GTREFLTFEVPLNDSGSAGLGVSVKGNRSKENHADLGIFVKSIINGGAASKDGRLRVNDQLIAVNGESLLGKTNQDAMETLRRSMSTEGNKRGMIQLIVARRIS

MLLT4 PDZ [4] = molecular target: T4, MLLT4 PDZ; test: Microscale thermophoresis, E PBM peptide vs MLLT4 PDZ; type: binding; conditions: MST
PARD3 PDZ3 [5] = molecular target: T10, PARD3 PDZ3 (human, UniProt Q8TEW0 582-685); test: MST; […]; PBS tween 20 0.05%; room temperature; […]; duplicate; conditions: both partners purified
T10 construct: third PDZ domain of human PARD3, residues 582-685, numbering of the full-length human protein; […]; Labelled on amines with RED-NHS dye for MST; also called PARDD3-3; not shown: His tag, N-terminal, cleaved
T10 sequence (Q8TEW0 582-685): as above

MLLT4 PDZ [6] = molecular target: T5, MLLT4 PDZ; test: as above; conditions: both partners purified
ZO-1 PDZ2 = molecular target: T6, ZO-1 PDZ2; test: as above; conditions: both partners purified
MPP5 PDZ [7] = molecular target: T7, MPP5 PDZ; test: as above; conditions: both partners purified
LNX2 PDZ2 [8] = molecular target: T8, LNX2 PDZ2; test: as above; conditions: both partners purified
[9] = Monolith NT.115, PDZ labeled RED-NHS, acetylated 12-mer peptide serially diluted, PBS tween 20 0.05%, room temperature, 80% LED, 20% MST power, MST time 30 s, averaged, ± standard deviation, two independent experiments
[10] = either no interaction, or affinity outside the tested concentration range, read-out: Kd, outside the tested concentration range

| Molecule | Effect of P71L on affinity vs WT (ZO1 PDZ2) | Effect of P71L on affinity vs WT (MPP5 PDZ [1]) | Change of Kd compared with SARS-CoV-2 WT (LNX2 PDZ2 [2]) | Kd (PARD3 PDZ3 [3]; [9]) | Kd (PARD3 PDZ3 [3]; [10]) | Kd (MLLT4 PDZ [4]; [9]) | Kd (MLLT4 PDZ [4]; [10]) | Kd (PARD3 PDZ3 [5]) | Kd (MLLT4 PDZ [6]) | Kd (ZO-1 PDZ2) | Kd (MPP5 PDZ [7]) | Kd (LNX2 PDZ2 [8]) |
| --- | --- | --- | --- | --- | --- | --- | --- | --- | --- | --- | --- | --- |
| Ac-NLNSSRVLDLLV [SARS-CoV-2 P71L] | considerably reduces | does not significantly impact the affinity | almost six times lower | not detectable in the tested concentration range; also recorded: No interaction detected | > 1000 µM | not detectable in the tested concentration range; also recorded: No interaction detected | > 1000 µM | – | – | – | – | – |
| B1 | – | – | – | – | – | – | – | > 1000 µM | > 1000 µM | 133 µM | 22 µM | 47 µM |
